Measured values reported in patent publication EP0017102A1, “Composition containing a phenyl benzoic acid compound and acetaminophen combination for the treatment of pain and inflammation and process for preparing the same” (Merck & Co., Inc., priority 1979, dated 1980).

What was measured:
[1] = tested on: female albino mice (Carworth CF-1); assay: in vivo; assay type: in vivo; details: Group I: Diflunisal 400 mg./kg. (100 %LD50) alone; oral; 20 tested; 14 days
Protocol: Measurements of the relative safety of the components and of the combination were carried out using acute oral toxicity studies in female mice. Randomly selected female albino mice (Carworth CF-1) weighing from 18 to 24 grams, and 6 to 7 weeks old, were used. The LD50 value for each drug was estimated from acute oral dose-response curves previously established. The following dose regimen was utilized:
The preparations were administered by gastric intubation using a metal catheter attached to a springe. The various doses were administered randomly with 20 mice per group. Food was withheld one to two hours before and three hours following drug treatment. Water was available at all times. […] Body weights were taken pretest and on days 7 and 14.

[2] = tested on: adjuvant arthritis induced in rats; assay: adjuvant arthritis analgesic bioassay (tail pinch / foot bend squeak response); assay type: in vivo, Sprague-Dawley rats
Text: Since analgesic tests using intact animals are not sensitive enough to detect the analgesic activity of nonsteroidal anti-inflammatory compounds, the analgesic bioassay employed utilized inflammatory sensitization procedures, specifically adjuvant arthritis. Adjuvant arthritis induced in rats, the animals used in the bioassay, resembles rheumatoid arthritis in man with respect to the manifestation of inflammation and hyperalgesia. When the affected joints of rats with adjuvant arthritis are subjected to a gentle manipulation, preferably by extending the joint, the rats respond by squeaking, which is a definite and reproducible sign of algesia. The ability of the tested compounds to suppress this squeaking response was an accurate measure of the analgesic activity of the tested compounds.
In accordance with the adjuvant arthritis bioassay used to evaluate the analgesic activity of the combinations of compounds of the present invention, young adult Sprague-Dawley rats of either sex are rendered hyperalgesic by injection of dessicated Mycobacterium- butyricum suspended in light mineral oil (Freund's adjuvant). The mycobacteria are ground in a mortar, suspended in the oil, and sterilized in an autoclave. Each animal receives 0.5 mg of the bacteria in 0.1 ml of oil, injected subcutaneously through a 21-gauge needle into the distal third of the tail.
The animals can subsequently be used in two ways for testing the analgesic action of drugs. The day after the injection of adjuvant, the tail is found to be sensitive to touch. Approximately 16 hours after the injection, the experimenter tests the animals for the presence of hyperalgesia. This is done by holding the animal in one hand. With the thumb and forefinger of the other hand, the observer applies gentle pressure to the tail about 2.5 cm proximal to the point where the needle has been inserted. This gentle pressure is repeated at 5-sec intervals. If the rat endures five such gentle presses without emitting more than one "squeak", analgesia is considered to be present and a score of + is assigned. Two or more squeaks earns a rating of 0, or no analgesia. Before being assigned to an experiment, animals are screened and only those with the 0 rating are used.
The hyperalgesic animals are assigned randomly to drug treatments and one of the treatments is always the vehicle without the drug (placebo group). […] […] This entire procedure may be referred to as "tail pinch" .technique. Alternatively, an apparatus for applying pressure to the tail may be employed and the "squeak threshold" determined before and after drug.
The adjuvant-injected animals, if left undisturbed, develop severe arthritis which becomes especially manifest in about two weeks. […] This "foot bend" technique yields drug responses essentially identical with those obtained by the "tail pinch" procedure.
For a further description of this bioassay and its significance, reference is made to Kuzuma and Kawai, "Evaluation of Analgesic Agents in Rats with Adjuvant Arthritis", Chem. Pharm. Bull., 23 (6) 1184-1191 (1975).

For `O=C(O)c1cc(-c2ccc(F)cc2F)ccc1O` [Diflunisal, 2-hydroxy-5-(2',4'-difluorophenyl)benzoic acid], the “No. Dead” value [1] was 14, the “Number of Rats with Analgesia” value ([2]; 1/2 h after administration, dose 5 mg./kg., 8 rats per dose) was 0 and the “Number of Rats with Analgesia” value ([2]; 1/2 h after administration, dose 10 mg./kg., 8 rats per dose) was 0. The “Percent of Rats with Analgesia Diflunisal Alone” value (shortened to “Percent of Rats”) ([2]; 1 Hrs. after drug, Diflunisal 4 mg./kg., 8 rats per dose) was 0%, the “Percent of Rats” value ([2]; 1 Hrs. after drug, Diflunisal 4 mg./kg., 10 rats per dose) was 0% and the “Percent of Rats” value ([2]; 1 Hrs. after drug, Diflunisal 8 mg./kg., 8 rats per dose) was 0%. The “Percent of Rats” value ([2]; 1 Hrs. after drug, Diflunisal 10 mg./kg., 8 rats per dose) was 0%, the “Percent of Rats” value ([2]; 1 Hrs. after drug, Diflunisal 16 mg./kg., 8 rats per dose) was 0% and the “Percent of Rats” value ([2]; 2 Hrs. after drug, Diflunisal 2 mg./kg., 10 rats per dose) was 20%. The “Percent of Rats” value ([2]; 3 Hrs. after drug, Diflunisal 4 mg./kg., 10 rats per dose) was 0%, the “Percent of Rats” value ([2]; 3 Hrs. after drug, Diflunisal 5 mg./kg., 8 rats per dose) was 25% and the “Percent of Rats” value ([2]; 3 Hrs. after drug, Diflunisal 8 mg./kg., 10 rats per dose) was 50%. For the same molecule, the “Percent of Rats” value ([2]; 4 Hrs. after drug, Diflunisal 2 mg./kg., 10 rats per dose) was 0%, the “Percent of Rats” value ([2]; 4 Hrs. after drug, Diflunisal 4 mg./kg., 10 rats per dose) was 0% and the “Percent of Rats” value ([2]; 4 Hrs. after drug, Diflunisal 5 mg./kg., 8 rats per dose) was 10%. The “Percent of Rats” value ([2]; 4 Hrs. after drug, Diflunisal 8 mg./kg., 10 rats per dose) was 30%, the “Percent of Rats” value ([2]; 5 Hrs. after drug, Diflunisal 5 mg./kg., 8 rats per dose) was 0% and the “Percent of Rats” value ([2]; 5 Hrs. after drug, Diflunisal 8 mg./kg., 8 rats per dose) was 0%. For the same molecule, the “Percent of Rats” value ([2]; 6 Hrs. after drug, Diflunisal 8 mg./kg., 8 rats per dose) was 0%, the “Percent of Rats” value ([2]; 6 Hrs. after drug, Diflunisal 10 mg./kg., 8 rats per dose) was 0% and the “Number of Rats with Analgesia” value ([2]; 1 h after administration, dose 2 mg./kg., 10 rats per dose) was 2. For the same molecule, the “Number of Rats with Analgesia” value ([2]; 1 h after administration, dose 4 mg./kg., 8 rats per dose) was 0, the “Number of Rats with Analgesia” value ([2]; 1 h after administration, dose 4 mg./kg., 10 rats per dose) was 0 and the “Number of Rats with Analgesia” value ([2]; 1 h after administration, dose 5 mg./kg., 8 rats per dose) was 0. For the same molecule, the “Number of Rats with Analgesia” value ([2]; 1 h after administration, dose 8 mg./kg., 8 rats per dose) was 0, the “Number of Rats with Analgesia” value ([2]; 1 h after administration, dose 8 mg./kg., 10 rats per dose) was 4 and the “Number of Rats with Analgesia” value ([2]; 1 h after administration, dose 10 mg./kg., 8 rats per dose) was 0. The “Number of Rats with Analgesia” value ([2]; 1 h after administration, dose 16 mg./kg., 8 rats per dose) was 0, the “Number of Rats with Analgesia” value ([2]; 1 h after administration, dose 20 mg./kg., 8 rats per dose) was 1 and the “Number of Rats with Analgesia” value ([2]; 2 h after administration, dose 2 mg./kg., 10 rats per dose) was 2. The “Number of Rats with Analgesia” value ([2]; 2 h after administration, dose 4 mg./kg., 8 rats per dose) was 2, the “Number of Rats with Analgesia” value ([2]; 2 h after administration, dose 4 mg./kg., 10 rats per dose) was 1 and the “Number of Rats with Analgesia” value ([2]; 2 h after administration, dose 5 mg./kg., 8 rats per dose) was 1. For the same molecule, the “Number of Rats with Analgesia” value ([2]; 2 h after administration, dose 8 mg./kg., 8 rats per dose) was 1, the “Number of Rats with Analgesia” value ([2]; 2 h after administration, dose 8 mg./kg., 10 rats per dose) was 4 and the “Number of Rats with Analgesia” value ([2]; 2 h after administration, dose 10 mg./kg., 8 rats per dose) was 1. For the same molecule, the “Number of Rats with Analgesia” value ([2]; 2 h after administration, dose 16 mg./kg., 8 rats per dose) was 4, the “Number of Rats with Analgesia” value ([2]; 2 h after administration, dose 20 mg./kg., 8 rats per dose) was 4 and the “Number of Rats with Analgesia” value ([2]; 3 h after administration, dose 2 mg./kg., 10 rats per dose) was 2. For the same molecule, the “Number of Rats with Analgesia” value ([2]; 3 h after administration, dose 4 mg./kg., 8 rats per dose) was 1, the “Number of Rats with Analgesia” value ([2]; 3 h after administration, dose 4 mg./kg., 10 rats per dose) was 0 and the “Number of Rats with Analgesia” value ([2]; 3 h after administration, dose 5 mg./kg., 8 rats per dose) was 2. For the same molecule, the “Number of Rats with Analgesia” value ([2]; 3 h after administration, dose 8 mg./kg., 8 rats per dose) was 3, the “Number of Rats with Analgesia” value ([2]; 3 h after administration, dose 8 mg./kg., 10 rats per dose) was 5 and the “Number of Rats with Analgesia” value ([2]; 3 h after administration, dose 10 mg./kg., 8 rats per dose) was 4. For the same molecule, the “Number of Rats with Analgesia” value ([2]; 3 h after administration, dose 16 mg./kg., 8 rats per dose) was 6, the “Number of Rats with Analgesia” value ([2]; 3 h after administration, dose 20 mg./kg., 8 rats per dose) was 7 and the “Number of Rats with Analgesia” value ([2]; 4 h after administration, dose 2 mg./kg., 10 rats per dose) was 0. The “Number of Rats with Analgesia” value ([2]; 4 h after administration, dose 4 mg./kg., 8 rats per dose) was 0, the “Number of Rats with Analgesia” value ([2]; 4 h after administration, dose 4 mg./kg., 10 rats per dose) was 0 and the “Number of Rats with Analgesia” value ([2]; 4 h after administration, dose 5 mg./kg., 8 rats per dose) was 1. The “Number of Rats with Analgesia” value ([2]; 4 h after administration, dose 8 mg./kg., 8 rats per dose) was 1, the “Number of Rats with Analgesia” value ([2]; 4 h after administration, dose 8 mg./kg., 10 rats per dose) was 3 and the “Number of Rats with Analgesia” value ([2]; 4 h after administration, dose 10 mg./kg., 8 rats per dose) was 4. The “Number of Rats with Analgesia” value ([2]; 4 h after administration, dose 16 mg./kg., 8 rats per dose) was 3, the “Number of Rats with Analgesia” value ([2]; 4 h after administration, dose 20 mg./kg., 8 rats per dose) was 7 and the “Number of Rats with Analgesia” value ([2]; 5 h after administration, dose 2 mg./kg., 10 rats per dose) was 0. For the same molecule, the “Number of Rats with Analgesia” value ([2]; 5 h after administration, dose 4 mg./kg., 8 rats per dose) was 0, the “Number of Rats with Analgesia” value ([2]; 5 h after administration, dose 4 mg./kg., 10 rats per dose) was 1 and the “Number of Rats with Analgesia” value ([2]; 5 h after administration, dose 5 mg./kg., 8 rats per dose) was 0. For the same molecule, the “Number of Rats with Analgesia” value ([2]; 5 h after administration, dose 8 mg./kg., 8 rats per dose) was 0, the “Number of Rats with Analgesia” value ([2]; 5 h after administration, dose 8 mg./kg., 10 rats per dose) was 2 and the “Number of Rats with Analgesia” value ([2]; 5 h after administration, dose 10 mg./kg., 8 rats per dose) was 2. The “Number of Rats with Analgesia” value ([2]; 5 h after administration, dose 16 mg./kg., 8 rats per dose) was 2, the “Number of Rats with Analgesia” value ([2]; 5 h after administration, dose 20 mg./kg., 8 rats per dose) was 5 and the “Number of Rats with Analgesia” value ([2]; 6 h after administration, dose 2 mg./kg., 10 rats per dose) was 0. For the same molecule, the “Number of Rats with Analgesia” value ([2]; 6 h after administration, dose 4 mg./kg., 8 rats per dose) was 0, the “Number of Rats with Analgesia” value ([2]; 6 h after administration, dose 4 mg./kg., 10 rats per dose) was 0 and the “Number of Rats with Analgesia” value ([2]; 6 h after administration, dose 5 mg./kg., 8 rats per dose) was 0. The “Number of Rats with Analgesia” value ([2]; 6 h after administration, dose 8 mg./kg., 8 rats per dose) was 0, the “Number of Rats with Analgesia” value ([2]; 6 h after administration, dose 8 mg./kg., 10 rats per dose) was 1 and the “Number of Rats with Analgesia” value ([2]; 6 h after administration, dose 10 mg./kg., 8 rats per dose) was 0. The “Number of Rats with Analgesia” value ([2]; 6 h after administration, dose 16 mg./kg., 8 rats per dose) was 1, the “Number of Rats with Analgesia” value ([2]; 6 h after administration, dose 20 mg./kg., 8 rats per dose) was 4 and the “Total Positives” value ([2]; sum over 1/2, 1 and 2 h, dose 5 mg./kg., 8 rats per dose) was 1. For the same molecule, the “Total Positives” value ([2]; sum over 1/2, 1 and 2 h, dose 10 mg./kg., 8 rats per dose) was 1 and the “Total Positives” value ([2]; sum over 1 and 2 h, dose 4 mg./kg., 10 rats per dose) was 1.
